Results: US9670238B1 (priority 2015, dated 2017)
“Also recorded” adds a separate entry of the source. Read-outs that look alike come from different tables or passages of the source.

Legend:
[1] = test system: myeloma cells (RPMI-8226); assay: Anti-myeloma activity, inhibition of cell proliferation; format: cell-based; conditions: RPMI-8226, 72 hours incubation, cell count
Procedure: To the solutions containing about 4000 myeloma cells (RPMI-8226), solutions of 5′-dibenzyl phosphate derivatives of 5-azacytidines at concentrations of 0.0033 μM, 0.01 μM, 0.033 μM, 0.1 μM, 0.33 μM, 1 μM, 3.3 μM, 10 μM, 33 μM, or 100 μM were added. After incubation in RPMI-1640 (containing 10% FBS and 1% Penn-strep) for 72 hours, cell count was determined and the values of IC50 were calculated as inhibitory effect against cell proliferation (referring to Journal of Clinical Pathology, 2006, 59, 947-951).

[2] = molecular target: T1, CDA (1-146aa), Human, His-tagged, Recombinant cytidine deaminase (Homo sapiens, UniProt P32320); format: in vitro ADME; conditions: PBS with cytidine deaminase, 37° C., about 30 minutes to 1 hour
T1 construct: CDA (1-146aa), Human, His-tagged; His tag; purchased ATGen
Procedure: 1 mg each of the 5′-dibenzyl phosphate derivatives of 5-azacytidines (formula (1)) was dissolved in 1 mL of acetonitrile. 10 μL of the solution was diluted with 1 mL of PBS. 10 μL of PBS solution of cytidine deaminase was added and stirred at 37° C. for about 30 minutes to 1 hour. 1 mL of acetonitrile was added to the reaction solution and separated by centrifugation. The supernatant obtained was analyzed with HPLC.
Cytidine deaminase: CDA (1-146aa), Human, His-tagged, Recombinant cytidine deaminase (ATGen)
Column: CAPCELL PAK ADME (4.6 mm×150 mm, particle size:3 μm)
Elution: A=Purified water containing 10 mM ammonium formate • B=Acetonitrile • Gradient mode: A:B=99:1→5:95/30 minutes

[3] = Non-enzymatic hydrolysis reactivity in PBS solution at 37° C. (HPLC); format: physicochemical; conditions: for 5-Azacytidine or 2′-deoxy-5-azacytidine (%) After 4 hours / 5-Azacytidine or 2′-deoxy-5-azacytidine (%) After 8 hours / 5-Azacytidine or 2′-deoxy-5-azacytidine (%) After 24 hours: PBS pH7.4 to 7.5, 37° C.; for Hydrolysis in PBS solution to the corresponding 5-azacytidines (in words): 37° C., up to 24 hours
Procedure: About 1 mg each of the obtained 5′-dibenzyl phosphate derivatives of 5-azacytidines (referring to formula (1)), such as O,O′-dibenzyl 5-azacytidylate (compound A) or O,O′-dibenzyl 2′-deoxy-5-azacytidylate (compound B) was dissolved in 1 mL of acetonitrile. 5 μL of the solution was added to 100 μL of PBS solution (pH7.4 to 7.5) and the solution was stirred at 37° C. The reactions were traced by HPLC analysis.
HPLC conditions were same as those in test example 1.

[4] = Partition coefficient (n-octanol/PBS); format: physicochemical
Description: The separation systems using a silica gel column, separation yields, data obtained from instrumental analysis and partition coefficients of 5′-dibenzyl (or diphenethyl, diphenyl) phosphate derivatives of 5-azacytidines (compounds A to H) which were synthesized according to the methods A and B are shown as below.

T1 sequence (P32320 whole entry): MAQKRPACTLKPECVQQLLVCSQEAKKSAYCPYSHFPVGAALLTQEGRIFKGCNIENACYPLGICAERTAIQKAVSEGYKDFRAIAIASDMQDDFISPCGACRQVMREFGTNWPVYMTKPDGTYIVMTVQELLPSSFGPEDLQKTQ

Molecule | IC50 ([1]; Homo sapiens) [nM] | Change in HPLC pattern (peak of the starting material) [2] | Change in HPLC pattern (peak of the starting material) ([2]; listed as 2′-deoxy-5-azacytidine) | IC50 [1] [nM] | 5-Azacytidine or 2′-deoxy-5-azacytidine (%) After 4 hours [3] [%] | 5-Azacytidine or 2′-deoxy-5-azacytidine (%) After 8 hours [3] [%] | 5-Azacytidine or 2′-deoxy-5-azacytidine (%) After 24 hours [3] [%] | Hydrolysis in PBS solution to the corresponding 5-azacytidines (in words) [3] | Partition coefficient, Log P [4]
Nc1ncn([C@H]2C[C@H](O)[C@@H](CO)O2)c(=O)n1 [2′-Deoxy-5-azacytidine, 2′-deoxy-5-azacytidine, reference compound] | 30 | The peak of the starting material disappeared | disappeared completely | – | – | – | – | – | –
O,O′-di(4-fluoro)benzyl 2′-deoxy-5-azacytidylate [compound D] | – | Almost no change in the peak of the starting | – | 780 | – | – | – | – | –
O,O′-dibenzyl 2′-deoxy-5-azacytidylate [compound B] | – | Almost no change in the peak of the starting | – | – | 8 | 8 | 45 | gradually hydrolyzed | –
O,O′-dibenzyl 5-azacytidylate [compound A] | – | Almost no change in the peak of the starting | – | 1710 | 18 | 35 | 67 | gradually hydrolyzed | 0.83
O,O′-diphenethyl 5-azacytidylate [compound F] | – | Almost no change in the peak of the starting | – | – | – | – | – | almost no change was confirmed even after 24 hours; also recorded: could not be observed | –
O,O′-diphenyl 2′-deoxy-5-azacytidylate [compound H] | – | extremely stable | – | – | – | – | – | – | –
O,O′-diphenyl 5-azacytidylate [compound G] | – | extremely stable | – | > 100000 | – | – | – | almost no change was confirmed even after 24 hours; also recorded: could not be observed | –
